This note sets out measurements from patent publication US20120184504A1, “"The Use of a PAR-1 Antagonist in Combination with a P2Y12 ADP Receptor Antagonist for Inhibition of Thrombosis"” (priority 2009, published 2012).

Holding throughout (assay type): in vivo, cynomolgus monkeys
Data set [1] has as its system platelet aggregation induced by collagen (3 μg/mL). Put plainly: Ex vivo whole blood platelet aggregation induced by collagen. Here is the method: (§1) Animals instrumented to produce CFRs were administered SCH 602539, cangrelor, or a combination of SCH 602539 and cangrelor. The dosing regimens of SCH 602539 were selected to provide a broad range of inhibition of platelet aggregation induced by 1 μM thrombin receptor agonist peptide (TRAP), whereas the doses of cangrelor were selected to achieve 50%-60% inhibition of platelet aggregation induced by 10 μM ADP (the degree of inhibition obtained with clopidogrel). Group 1 received drug vehicle only (20% hydroxypropyl betacyclodextran or saline, 2 mL i.v.). Group 2 received SCH 602539 dissolved in 20% hydroxypropyl betacyclodextran administered as sequential i.v. boluses of 0.1, 0.3, or 1 mg/kg, at 30-minute intervals. Group 3 received cangrelor dissolved in saline and administered as an intravenous infusion of 0.1, 0.2, or 0.3 μg/kg/min for 30 minutes each. Group 4 received a combination of SCH 602539 bolus plus cangrelor infusion (at respective doses of: 1) 0.05 mg/kg+0.05 μg/kg/min; 2) 0.1 mg/kg+0.1 μg/kg/min; and 3) 0.15 mg/kg+0.1 μg/kg/min. The three dose regimens within each group were administered sequentially over the consecutive 30-minute periods coinciding with the re-induction of endothelial injury. Study drug or vehicle was administered after stable CFRs were achieved, and upon the completion of a 30-minute baseline CFR collection period, drug(s) or vehicle were administered incrementally (every 30 minutes) either as a bolus (SCH 602539) or as an infusion (cangrelor), and their effects on CFRs were monitored in the next three 30-minute observation periods. Blood samples (3 mL) were collected from the femoral arterial catheter at the end of each 30-minute observation period for assessment of ex vivo platelet aggregation and coagulation parameters.
(§2) Platelet aggregation studies were performed ex viva on blood samples obtained from the monkeys subjected to the Folts model, using a ChronoLog whole blood aggregometer (Model 540VS, Havertown, Pa.). Briefly, 0.5 mL of blood was incubated with 0.5 mL of normal saline at 37° C. in a cuvette containing a stir bar for 2 minutes. Platelet agonists used in this study included TRAP (3 μM), ADP (10 μM), the thromboxane A2 mimetic U46619 (10 μM), and collagen (3 μg/mL). Platelet aggregation was monitored for 5 minutes following the addition of the agonist. The peak aggregation response was recorded in ohms. In addition, standard coagulation parameters, including prothrombin time (PT), activated partial thromboplastin time (APTT), and activated clotting time (ACT), were assessed.

Data set [2] is described as follows: Prothrombin time (PT) in plasma, Folts model animals. The following applies: for PT: i.v.; for effect on PT: tested doses. As to the method:
as §1, §2
(§3) PT and APTT assays were performed with plasma, while the ACT assay was performed with whole blood. Data are presented as mean±SEM (n=5-6/group).

A short description of data set [3]: Activated partial thromboplastin time (APTT) in plasma, Folts model animals. The following applies: for APTT: i.v.; for effect on APTT: tested doses. Here is the method:
as §1, §2, §3

For the molecule `CCOC(=O)N[C@@H]1CC[C@@H]2[C@@H](C1)C[C@H]1C(=O)O[C@H](C)[C@H]1[C@H]2/C=C/c1ccc(-c2ccccn2)cn1` [SCH 602539], the “Aggregation, Collagen” value stood at 26 ± 2 ohms in data set [1] (SCH 602539 0.1 mg/kg, baseline 27 ± 4); 24 ± 3 ohms in data set [1] (SCH 602539 0.3 mg/kg, baseline 27 ± 4); 29 ± 5 ohms in data set [1] (SCH 602539 1.0 mg/kg, baseline 27 ± 4). Besides, the “effect on aggregation induced by 3 μg/mL collagen” value in data set [1] (SCH 602539 0.3 mg/kg and 1 mg/kg) is on record as “did not affect”. In addition, the PT was determined as 11.5 ± 0.2 s in data set [2] (SCH 602539 0.1 mg/kg, bolus, plasma, baseline 11.6 ± 0.4); 11.8 ± 0.4 s in data set [2] (SCH 602539 0.3 mg/kg, bolus, baseline 11.6 ± 0.4); 12.8 ± 1.1 s in data set [2] (SCH 602539 1.0 mg/kg, bolus, baseline 11.6 ± 0.4). In data set [2], the “effect on PT” value was “no effect”. In addition, the APTT worked out at 22.4 ± 1.5 s in data set [3] (SCH 602539 0.1 mg/kg, bolus, plasma, baseline 22.8 ± 1.7); 23.4 ± 2.2 s in data set [3] (SCH 602539 0.3 mg/kg, bolus, baseline 22.8 ± 1.7); 25.4 ± 4.9 s in data set [3] (SCH 602539 1.0 mg/kg, bolus, baseline 22.8 ± 1.7). Further, the “effect on APTT” value in data set [3] is “no effect”.

In the case of `CSCCNc1nc(SCCC(F)(F)F)nc2c1ncn2[C@@H]1O[C@H](COP(=O)(O)OP(=O)(O)C(Cl)(Cl)P(=O)(O)O)[C@@H](O)[C@H]1O` [Cangrelor], the “Aggregation, Collagen” value in data set [1] (Cangrelor 0.1 μg/kg/min, baseline 24 ± 3) is 20 ± 3 ohms; in data set [1] (Cangrelor 0.2 μg/kg/min, baseline 24 ± 3), 20 ± 4 ohms; in data set [1] (Cangrelor 0.3 μg/kg/min, baseline 24 ± 3), 20 ± 3 ohms. The “effect on aggregation stimulated by 3 μg/mL collagen” value in data set [1] (cangrelor 0.2 and 0.3 μg/kg/min) was “did not interfere”. Moreover, the “inhibition of aggregation induced by collagen (discussion)” value in data set [1] (cangrelor, tested doses) is on record as “modest numeric inhibition”. Moreover, the PT in data set [2] (Cangrelor 0.1 μg/kg/min × 30 min, plasma, mean±SEM, baseline 10.6 ± 0.4) is 10.4 ± 0.3 s; in data set [2] (Cangrelor 0.2 μg/kg/min × 30 min, baseline 10.6 ± 0.4) it was 10.8 ± 0.6 s; in data set [2] (Cangrelor 0.3 μg/kg/min × 30 min, baseline 10.6 ± 0.4) it was 10.7 ± 0.6 s. For the same molecule, the “effect on PT” value in data set [2] is given as “no effect”. Moreover, the APTT in data set [3] (Cangrelor 0.1 μg/kg/min × 30 min, plasma, baseline 22.5 ± 1.6) came out at 23.6 ± 2.6 s; in data set [3] (Cangrelor 0.2 μg/kg/min × 30 min, baseline 22.5 ± 1.6), 22.1 ± 1.3 s; in data set [3] (Cangrelor 0.3 μg/kg/min × 30 min, baseline 22.5 ± 1.6), 22.2 ± 2.0 s. The “effect on APTT” value in data set [3] was “no effect”.
